# Measurements: BigSolDB 2.1
structure (smiles),measurement,setting,value
c1ccc2c(c1)sc1ccccc12,solubility (mole fraction),"in acetonitrile, 278.15 K",0.00126
same,solubility (mole fraction),"in acetonitrile, 283.15 K",0.00163
same,solubility (mole fraction),"in acetonitrile, 288.65 K",0.00192
same,solubility (mole fraction),"in acetonitrile, 293.15 K",0.00242
same,solubility (mole fraction),"in acetonitrile, 298.15 K",0.0029
same,solubility (mole fraction),"in acetonitrile, 303.15 K",0.00331
same,solubility (mole fraction),"in acetonitrile, 308.15 K",0.00406
same,solubility (mole fraction),"in acetonitrile, 313.15 K",0.00478
same,solubility (mole fraction),"in acetonitrile, 318.15 K",0.0056
same,solubility (mole fraction),"in acetonitrile, 323.15 K",0.00668
same,solubility (mole fraction),"in acetonitrile, 328.15 K",0.00782
same,solubility (mole fraction),"in acetonitrile, 333.15 K",0.00917
same,solubility (mole fraction),"in methanol, 278.15 K",0.00454
same,solubility (mole fraction),"in methanol, 283.15 K",0.00611
same,solubility (mole fraction),"in methanol, 288.65 K",0.00845
same,solubility (mole fraction),"in methanol, 293.15 K",0.0118
same,solubility (mole fraction),"in methanol, 298.15 K",0.0152
same,solubility (mole fraction),"in methanol, 303.15 K",0.0189
same,solubility (mole fraction),"in methanol, 308.15 K",0.0241
same,solubility (mole fraction),"in methanol, 313.15 K",0.0321
same,solubility (mole fraction),"in methanol, 318.15 K",0.0402
same,solubility (mole fraction),"in methanol, 323.15 K",0.0506
same,solubility (mole fraction),"in methanol, 328.15 K",0.0639
same,solubility (mole fraction),"in methanol, 333.15 K",0.0839
